From patent US20250066423A1, “SESTRIN-MAPK COMPLEX INHIBITORS” (Sentcell Ltd, priority 2021, published 2025)
Peptide text beside a SMILES is read from it.

Experiments:
T cells = experiment: Seahorse assay for cell metabolism (OCR, FAO); type: cell-based, human; conditions: T cells treated for 24h
Protocol: Senescent T cells and stem cells were analysed using FACS analysis. (B—C) Represented is the ratio to untreated sample. Each dot is an individual donor. (D) Oxygen Consumption Rate (OCR) of T cells treated with DOS46L for 24h were measured by Seahorse. […] (E) The FAO index was calculated by OCR difference between Ctrl and DOS46L treated T cells in the presence or in the absence of the FAO inhibitor etomoxir by Seahorse. Student's T-test was used to analyse the data. **p<0.01; ***p<0.001.
• 1. CD4+ cells were purified from PBMC using appropriate microbeads (Miltenyi) • 2. Purified CD4+ cells were activated with CD3/CD28 Dynabeads (Gibco) and treated over-night with DOS46L at 10 μM. • 3. Day after, the conventional growth media was removed from the cells and was added the “substrate-limited growth media” composed of basic DMEM plus 0.5 mM glucose, 1 mM glutamine and 1% FBS. • 4. Cells were then incubated with this media for 4 hrs in incubator. • 5. Cells were then counted and plated at the concentration of 2*10^5 cells/well in the XF96 well plate pre-treated with poly-lysine. • 6. Cells were then supplemented with the “assay media” composed of XF DMEM with 2 mM of glucose and 0.5 mM L-carnitine. • 7. […] Seahorse machine took reads of OCR values at different time points for the time span of 120 mins. […] Cells were left in incubator for 12 days and then they were analysed.

sestrin mRNA = experiment: Sestrin mRNA expression in spleens of DOS treated old mice (qPCR); type: in vivo; conditions: single dose, from day ten
Protocol: FIG. 13 illustrates the level of Sestrin in DOS-treated murine blood and tissues. (A-B) Old mice were inoculated subcutaneously with DOS46L compound (0.1 mg/kg or 1 mg/kg). Blood was withdrawn at 0, 48, 72 hours and 8 weeks after the inoculation. Pharmacodynamics of Sestrin 2 were analysed by FACS in CD4+ T cell population. […] Untreated age-matched controls are shown. (D) 72 hr after DOS treatment, mice were sacrificed and old tissues were collected to analyse Sestrin levels in different organs by immunoblotting. **p<0.01, *p<0.05.
• 1. Transduced cells were collected • 2. Cell suspension was centrifugated and the cell pellet resuspended in warm PBS with 5 μM of CTV • 3. Followed an incubation of 10 min at 37° C. • 4. Cold PBS was added and cells were centrifugated • 5. Cells were then resuspended in medium and counted • 6. An aliquot of these cells were checked by FACS • 7. Cells were then stimulated with DOS in 200 μL and left for 12 days in culture RNA Extraction, Retro-Transcription and qPCR • 1. CD4+ cells were purified from mouse spleen using appropriate microbeads (Miltenyi) • 2. Total RNA from CD4+ cells was extracted using the “PureLink RNA Mini Kit” (Invitrogen). • 3. RNA concentration was acquired by NANO-DROP spectrophotometer (Thermo-Scientific). • 4. […]

CC[C@H](C)[C@@H]1NC(=O)[C@H](Cc2ccccc2)NC(=O)[C@H](C)NC(=O)[C@H](C(C)C)NC(=O)[C@@H]2CCCN2C1=O [DOS46L] (cyclo(AFIPV))
oxidative metabolism and Fatty Acid Oxidation (FAO) (T cells): Induction of Fatty Acid Oxidation (FAO) | sestrin mRNA expression (sestrin mRNA): Long term mRNA silencing of sestrin expression
